According to US20110002859A1, “CHEWING GUM CONTAINING EUCALYPTUS EXTRACT” (LOTTE CO., LTD., priority 2008, published 2011):
≈ marks a conversion by molar mass, not a printed value.

What was measured:
[1] = tested on: periodontopathic bacteria; conditions: background art; cited from earlier work
[2] = tested on: Prevotella melaninogenica ATCC25845; assay: In vitro antibacterial activity, minimum inhibitory concentration (MIC); type: cell-based; conditions: 37° C., anaerobic, 24 to 48 hours, turbidity 550 nm; read-out: MIC, bacterial strain c
Description: (§1) In vitro antibacterial activities of Macrocarpal A, macrocarpal B, and macrocarpal C were evaluated according to the following procedure. First, to 25 ml of a medium, added were 2.5 ml of various pre-cultured periodontopathic bacteria described below, and the whole was mixed well. A sample solution was prepared by diluting in two stages a sample stock solution on a 96-well plate by using a diluent. Within each well of the 96-well plate, 100 μl of the sample solution and 100 μl of a bacterial solution were mixed, and cultivated at 37° C. under an anaerobic condition for 24 to 48 hours. The turbidity (550 nm) of each well was measured with a microplate reader, the growth of the bacterium was assessed, and its minimum inhibitory concentration (MIC) was determined. […] (Used Bacterial Strain) c: Prevotella melaninogenica ATCC25845

[3] = tested on: Capnocytophaga ochracea ATCC33596; assay: as above; type: cell-based; conditions: 37° C., anaerobic, 24 to 48 hours, turbidity 550 nm; read-out: MIC, bacterial strain d
Description: as §1, with “d: Capnocytophaga ochracea ATCC33596” for “c: Prevotella melaninogenica ATCC25845”

[4] = tested on: Porphyromonas gingivalis ATCC33277; assay: as above; type: cell-based; conditions: 37° C., anaerobic, 24 to 48 hours, turbidity 550 nm; read-out: MIC, bacterial strain a
Description: as §1, with “a: Porphyromonas gingivalis ATCC33277” for “c: Prevotella melaninogenica ATCC25845”

[5] = tested on: periodontopathic bacteria; assay: In vitro growth prevention of all tested periodontopathic bacteria; type: cell-based; conditions: all four strains of Table 1
Description: In vitro antibacterial activities of Macrocarpal A, macrocarpal B, and macrocarpal C were evaluated according to the following procedure. First, to 25 ml of a medium, added were 2.5 ml of various pre-cultured periodontopathic bacteria described below, and the whole was mixed well. A sample solution was prepared by diluting in two stages a sample stock solution on a 96-well plate by using a diluent. Within each well of the 96-well plate, 100 μl of the sample solution and 100 μl of a bacterial solution were mixed, and cultivated at 37° C. under an anaerobic condition for 24 to 48 hours. The turbidity (550 nm) of each well was measured with a microplate reader, the growth of the bacterium was assessed, and its minimum inhibitory concentration (MIC) was determined.

[6] = tested on: Prevotella intermedia ATCC25611; assay: In vitro antibacterial activity, minimum inhibitory concentration (MIC); type: cell-based; conditions: 37° C., anaerobic, 24 to 48 hours, turbidity 550 nm; read-out: MIC, bacterial strain b
Description: as §1, with “b:” for “c:”, “intermedia ATCC25611” for “melaninogenica ATCC25845”

Row | Structure (SMILES) | antibacterial activities against periodontopathic bacteria [1] | MIC [2] [µg/mL] | MIC [3] [µg/mL] | MIC [4] [µg/mL] | concentration capable of preventing periodontopathic bacteria from growing up [5] [µg/mL] | MIC [6] [µg/mL]
1 | CC12CCC(CC1)C(C)(C)O2 [cineole] | weak antibacterial activities |  |  |  |  | 
2 | CC(C)C[C@@H](c1c(O)c(C=O)c(O)c(C=O)c1O)[C@@]1(C)CC[C@@H]2[C@@H]1[C@H]1[C@@H](CC[C@@]2(C)O)C1(C)C [Macrocarpal A, macrocarpal A] |  | 0.78 (≈ 1.65 µM) | 0.39 (≈ 0.825 µM) | 0.195 (≈ 0.413 µM) | 0.78 | 0.195 (≈ 0.413 µM)
3 | CC(C)C[C@H](c1c(O)c(C=O)c(O)c(C=O)c1O)[C@@]1(C)CC[C@@H]2[C@@H]1[C@H]1[C@@H](CC[C@@]2(C)O)C1(C)C [Macrocarpal B, macrocarpal B] |  | 3.13 (≈ 6.62 µM) | 1.56 (≈ 3.3 µM) | 0.78 (≈ 1.65 µM) | 3.13 | 1.58 (≈ 3.34 µM)
4 | C=C1CC[C@@H]2[C@H]([C@H]3[C@H]1CC[C@]3(C)[C@@H](CC(C)C)c1c(O)c(C=O)c(O)c(C=O)c1O)C2(C)C [Macrocarpal C, macrocarpal C] |  | 1.58 (≈ 3.48 µM) | 0.39 (≈ 0.858 µM) | 0.195 (≈ 0.429 µM) | 1.58 | 0.39 (≈ 0.858 µM)
